Results: US20080261902A1, “Pharmaceutical composition containing polydatin and its application” (Shenzhen Neptunus Pharmaceutical Co., Ltd., priority 2005, published 2008)
In brackets after ≈: the same amount, converted by molar mass.

Experiments:
[1] = Effect of pH to solubility of polydatin (Embodiment 12); type: physicochemical; settings: for solubility at 8 h: deionized water of adjusted pH, thermodynamic from solid, water, room temperature
Protocol: • 1. Materials: Deionized water, […] industry city; sodium hydroxide, Dongguan dongjiang chemical reagent co., ltd.; hydrochloric acid, Dongguan dongjiang chemical reagent co., ltd. • 2. Method: Regulating deionized water into pH of 5.0˜12.0 with 0.2N sodium hydroxide and 0.2N hydrochloric acid. Measuring precisely 20 ml each of above solutions, adding polydatin of proper amount respectively, treating with ultrasonic for 20 min under 40° C., supersaturating the solution, placing for 8 h under room temperature, filtering with 0.45 μm microporous membrane, wherein the filtrates are saturated solutions of polydatin in water solutions of different pHs. Adopting HPLC method to determine content of polydatin in the filtrates and calculate solubility of polydatin referring to document 20 (Wuye etc., determination content of resveratrol glycoside and tangerine peel glycoside in qing dan capsule with HPLC method, Chinese traditional patent medicine, 1999, 21(5): 226). • 3.

[2] = Solubility of polydatin in alcohol-water solution and normal saline (Embodiment 13); type: physicochemical; settings: room temperature; for solubility at 8 h: thermodynamic from solid
Protocol: • 1. Materials: Anhydrous alcohol, analytically pure, Guangzhou No.2 chemical reagent factory; purified water, […] industry city; 0.9% sodium chloride injection, batch number C040514-092, Sichuan kelun pharmaceutical co., ltd. • 2. Method: Preparing alcohol water solutions having concentration of 15%, […] 30%, 40%, 50%, 60%, 70%, 80%, 90%, 95%(v/v) with anhydrous alcohol and purified water. Precisely Measuring water, anhydrous alcohol, 0.9% sodium chloride injection (normal saline) and 20 ml alcohol water solution of each above concentration, adding polydatin of proper amount respectively, treating with ultrasonic for 20 min under 40 □, supersaturating the solution, placing for 8 h under room temperature, filtering with 0.45 μm microporous membrane, wherein the filtrates are saturated solutions of polydatin in alcohol water solutions of different concentration. Adopting HPLC method to determine content of polydatin in the filtrates and calculate solubility of polydatin referring to document 20. • 3. Result: […]

[3] = Solubility of polydatin in propanediol-water solution (Embodiment 14); type: physicochemical; settings: for solubility at 8 h: thermodynamic from solid, room temperature
Protocol: Materials: 1,2-propanediol, analytically pure, Guangzhou No. 2 chemical reagent factory; purified water, […] industry city. Method: Preparing propanediol water solutions having concentration of at least 20%(v/v) with propanediol and purified water. Precisely measuring propanediol and 20 ml propanediol water solution of each above concentration, adding polydatin of proper amount respectively, treating with ultrasonic for 20 min under 40° C., supersaturating the solution, placing for 8 h under room temperature, filtering with 0.45 μm microporous membrane, wherein the filtrates are saturated solutions of polydatin in propanediol water solutions of different concentration. Adopting HPLC method to determine content of polydatin in the filtrates and calculate solubility of polydatin referring to document 20.

[4] = Polydatin solutions prepared by conventional methods (high pH, heating, tween 80); type: physicochemical
Excerpt: It is widely known by technicians in the field that clinic solutions require pH4.0˜9.0. Obviously, it is hard to prepare polydatin water solution of effective concentration by adjusting pH only. Furthermore, the polydatin has bad stability in solutions of high pH, so the clinic application of the polydatin drug composition preparations of high pH will be further limited. The described document No. 19 adopts heating to dissolve to obtain polydatin drug compositions. According to the experiment, the solutions obtained by heating to dissolve precipitate solute as the temperature reduces, and the polydatin concentrations in the solutions are lower than 0.5 mg/ml after indoor temperature balancing. Obviously, the method is not suitable in preparing officinal medicine preparations. China Patent Application 02134928.2 describes a method of preparing polydatin solutions for injection by adopting adjusting pH and/or adding surfactants (tween 80). […] Furthermore, the prior documents indicate that preparations of administration in vein should be avoided to use as possible because tween surfactants have potential hemolytic and antihypertensive activity. (Zhuangyue etc., applied drug preparation technique, People's medical publishing house 1999:p417)

[5] = Solubility of polydatin in alcohol-propanediol-water mixed solvent (Embodiment 15); type: physicochemical; settings: mixed solvent of 60% alcohol-water and propanediol 10:25(v/v) as printed
hyperlipoidemia patient = settings: 2.2 mg/kg/d; cited from earlier work
blood platelet = settings: 6˜100 μmol/L; cited from earlier work
[6] = test system: SD rats, shock related to blood loss; assay: Treatment action for shock related to blood loss (Embodiment A7)

In the case of `OCC1OC(Oc2cc(O)cc(/C=C/c3ccc(O)cc3)c2)C(O)C(O)C1O` [polydatin, 3,4′,5-trihydroxy-trans stilbene-3-β-D-glucoside], the “pH of the solution needed to obtain polydatin water solution” value ([1]; concentration above 3 mg/ml) is reported as “above 12”, the solubility at 8 h ([1]; pH 5, aqueous buffer, pH of solvent 5.0) is reported as < 0.5 mg/mL and the solubility at 8 h ([1]; pH 6, aqueous buffer, pH of solvent 6.0) is reported as < 0.5 mg/mL. For the same molecule, the solubility at 8 h ([1]; pH 7, aqueous buffer, pH of solvent 7.0) was < 0.5 mg/mL, the solubility at 8 h ([1]; pH 8, aqueous buffer, pH of solvent 8.0) was < 0.5 mg/mL and the solubility at 8 h ([1]; pH 9, aqueous buffer, pH of solvent 9.0) was < 0.5 mg/mL. The solubility at 8 h ([1]; pH 10, aqueous buffer, pH of solvent 10.0) was < 0.5 mg/mL, the solubility at 8 h ([1]; pH 11, aqueous buffer, pH of solvent 11.0) was 0.7 mg/mL (≈ 1.79 mM) and the solubility at 8 h ([1]; pH 12, aqueous buffer, pH of solvent 12.0) was ~5 mg/mL (≈ 12.8 mM). For the same molecule, the “pH of final solution” value ([1]; pH of solvent 12) was “about 10”, the “pH of the final solution” value ([1]; polydatin water solution of concentration above 3 mg/ml) was “above 10” and the solubility at 8 h ([2]; alcohol-water solution, aqueous with cosolvent or surfactant or cyclodextrin, alcohol water solution 50%~95% (v/v)) was > 20 mg/mL. For the same molecule, the solubility at 8 h ([2]; alcohol-water solution, aqueous with cosolvent or surfactant or cyclodextrin, content of alcohol 15% (v/v) in water) was ~1 mg/mL (≈ 2.56 mM), the solubility at 8 h ([2]; alcohol-water solution, aqueous with cosolvent or surfactant or cyclodextrin, content of alcohol 30% (v/v) in water) was ~6 mg/mL (≈ 15.4 mM) and the solubility at 8 h ([2]; alcohol-water solution, aqueous with cosolvent or surfactant or cyclodextrin, content of alcohol 40% (v/v) in water) was 9.2 mg/mL (≈ 23.6 mM). It also gave a solubility at 8 h ([2]; alcohol-water solution, aqueous with cosolvent or surfactant or cyclodextrin, content of alcohol 50% (v/v) in water) of ~25 mg/mL (≈ 64 mM), a solubility at 8 h ([2]; alcohol-water solution, aqueous with cosolvent or surfactant or cyclodextrin, content of alcohol 60% (v/v) in water) of ~42 mg/mL (≈ 108 mM) and a solubility at 8 h ([2]; alcohol-water solution, aqueous with cosolvent or surfactant or cyclodextrin, content of alcohol 70% (v/v) in water) of ~80 mg/mL (≈ 205 mM). It also gave a solubility at 8 h ([2]; alcohol-water solution, aqueous with cosolvent or surfactant or cyclodextrin, content of alcohol 80% (v/v) in water) of 76.8 mg/mL (≈ 197 mM), a solubility at 8 h ([2]; alcohol-water solution, aqueous with cosolvent or surfactant or cyclodextrin, content of alcohol 90% (v/v) in water) of ~75 mg/mL (≈ 192 mM) and a solubility at 8 h ([2]; alcohol-water solution, aqueous with cosolvent or surfactant or cyclodextrin, content of alcohol 95% (v/v) in water) of 30.7 mg/mL (≈ 78.6 mM). For the same molecule, the solubility at 8 h ([2]; anhydrous alcohol, organic solvent or mixture, content of alcohol 100% (anhydrous alcohol)) was ~20 mg/mL (≈ 51.2 mM), the solubility ([2]; content of alcohol 70% (v/v) in water) was 80.9 mg/mL (≈ 207 mM) and the solubility at 8 h ([2]; normal saline, saline or isotonic, normal saline (0.9% sodium chloride injection)) was < 0.5 mg/mL. The solubility at 8 h ([2]; purified water, water, content of alcohol 0% (purified water)) was < 0.5 mg/mL, the solubility at 8 h ([3]; 1,2-propanediol, organic solvent or mixture, content of propanediol 100% (propanediol)) was ~60 mg/mL (≈ 154 mM) and the “stability of the solution” value ([3]; 20% propanediol water solution, about 3.5 mg/ml) was “precipitates solute of polydatin after placing for 12 h”. For the same molecule, the solubility at 8 h ([3]; propanediol-water solution, aqueous with cosolvent or surfactant or cyclodextrin, content of propanediol 20% (v/v) in water) was ~3.5 mg/mL (≈ 8.97 mM), the solubility at 8 h ([3]; propanediol-water solution, aqueous with cosolvent or surfactant or cyclodextrin, content of propanediol 35% (v/v) in water) was 4.9 mg/mL (≈ 12.6 mM) and the solubility at 8 h ([3]; propanediol-water solution, aqueous with cosolvent or surfactant or cyclodextrin, content of propanediol 50% (v/v) in water) was 24.4 mg/mL (≈ 62.5 mM). For the same molecule, the solubility at 8 h ([3]; propanediol-water solution, aqueous with cosolvent or surfactant or cyclodextrin, content of propanediol 65% (v/v) in water) was 28.3 mg/mL (≈ 72.5 mM), the solubility at 8 h ([3]; propanediol-water solution, aqueous with cosolvent or surfactant or cyclodextrin, content of propanediol 80% (v/v) in water) was 33.6 mg/mL (≈ 86.1 mM) and the “sensitivity of polydatin (solution)” value [4] was “sensitive to temperature and light”. For the same molecule, the “polydatin concentration in solutions obtained by heating to dissolve” value ([4]; after indoor temperature balancing) was “lower than 0.5 mg/ml”, the “stability in solutions of high pH” value ([4]; high pH) was “bad stability” and the “cold preservation of polydatin drug composition” value ([4]; tween 80 of 0.5%, pH8.5, concentration 4 mg/ml, 4° C.) was “can not be cold preserved”. For the same molecule, the “stabilization of the solution in cold preservation” value [5] was “good stabilization”, the “total cholesterol, LDL/HDL cholesterol ratio, and blood platelet aggregation rate” value (hyperlipoidemia patient) was “capable of lowering” and the “production of the platelet accumulation and B2 thrombus induced by AA and ADP” value (blood platelet) was “capable of inhibiting”. The “fraction of the treatment group with survival period of 24 hours” value ([6]; 2.4 mg/kg through femoral vein) was 9/10, the “fraction of the treatment group with survival period of 48 hours” value ([6]; 2.4 mg/kg through femoral vein) was 8/10 and the “fraction of the treatment group with survival period of 72 hours” value ([6]; 2.4 mg/kg through femoral vein) was 6/10. The “ratio of the survival time of the treatment group and the control group” value ([6]; 2.4 mg/kg through femoral vein, 1 hour after shock) was > 5.5, the arterial pressure ([6]; after 30 minutes of medication, 2.4 mg/kg, 5.3+0.2 kPa after shock for 1 hour) was 8.6+0.8 kPa and the “increase of diameter of micro blood vessel” value ([6]; after medication, 2.4 mg/kg, diameter reduced to 63.3% by shock) was 20.3%.
